Results from patent publication US7355063B2, “Shogaol compound and tyrosinase activity inhibitor comprising the compound” (Toagosei Co., Ltd., priority 2003, dated 2008).

Key:
[1] = tested on: mushroom tyrosinase; experiment: Tyrosinase activity inhibition test using L-dopa as substrate (Test Examples 1 and 2, absorbance at 475 nm); type: biochemical
Protocol: Using the compound 7 obtained in Example 2, the compound 13 obtained in Example 5, a mixture of the compound 18 and the compound 19 (existing molar ratio 45:55) obtained in Example 7, and arbutin (manufactured by Tokyo Kasei Kogyo Co., Ltd.) as a comparative control, a tyrosinase activity inhibition test was carried out using L-dopa as a substrate.
The specific test procedures are as follows. • (1) 1.80 ml of a phosphate buffer prepared by dissolving 1.000 g of sodium dihydrogen phosphate and 1.186 g of disodium hydrogen phosphate in 500 ml of distilled water, 1.00 ml of a substrate solution prepared by dissolving 32.7 mg of L-DOPA in 200 ml of distilled water, and 0.10 ml of a test solution prepared by dissolving the test compound in dimethyl sulfoxide were mixed together. • (2) 0.10 ml of an enzyme solution prepared by dissolving 3.0 mg (2400 units; manufactured by Sigma Corporation) of mushroom tyrosinase in 7.0 ml of distilled water was added to the solution prepared in (1), and the whole was stirred for 15 seconds. The resulting solution was maintained at 25° C., and the absorbance at 475 nm was measured one minute and 45 seconds later and 2 minutes and 45 seconds later. • (3) The test operations in the above (1) and (2) were conducted three times for the individual test compounds and blank test (only dimethyl sulfoxide), and the resulting numeric value was inserted in the following calculation formula and a mean value thereof was regarded as a tyrosinase activity inhibition ratio (%). Tyrosinase activity inhibition ratio (%)=[(T^1−T^2)/T^1]×100 • T^1=difference in absorbance of solution with addition of no test compound between 2 minutes and 45 seconds later and one minute and 45 seconds later • T^2=difference in absorbance of solution with addition of test compound was added between 2 minutes and 45 seconds later and one minute and 45 seconds later
(§1) Using the compound 40 obtained in Example 24 and arbutin (manufactured by Tokyo Kasei Kogyo Co., Ltd.) as a comparative control, a tyrosinase activity inhibition test was carried out using L-dopa as a substrate. The test procedure was in accordance with Test Example 1.

[2] = tested on: mushroom tyrosinase; experiment: Tyrosinase activity inhibition test using L-dopa as substrate (Test Examples 3 to 6, microplate reader, 490 nm); type: biochemical
Protocol: Using the compound 37 obtained in Example 21, the compound 38 obtained in Example 22, the compound 39 obtained in Example 23, and arbutin (manufactured by Tokyo Kasei Kogyo Co., Ltd.) as a comparative control, a tyrosinase activity inhibition test was carried out using L-dopa as a substrate.
The specific test procedures are as follows. • (1) 72 μl of a phosphate buffer prepared by dissolving 1.000 g of sodium dihydrogen phosphate and 1.186 g of disodium hydrogen phosphate in 500 ml of distilled water, 80 μl of a substrate solution prepared by dissolving 32.7 mg of L-DOPA in 200 ml of distilled water, and 8 μl of a test solution prepared by dissolving the test compound in dimethyl sulfoxide were mixed together. • (2) 80 μl of an enzyme solution prepared by dissolving 3.0 mg (2400 units; manufactured by Sigma Corporation) of mushroom tyrosinase in 7.0 ml of distilled water and diluting the solution with the above phosphate buffer so as to make it five times in amount was added to the solution prepared in (1), and the whole was stirred for 15 seconds. The resulting solution was maintained at 25° C., and the absorbance at 490 nm was measured by a microplate reader one minute and 45 seconds later and 2 minutes and 45 seconds later. • (3) The test operations in the above (1) and (2) were conducted four times for the individual test compounds and blank test (only dimethyl sulfoxide), and the resulting numeric value was inserted in the following calculation formula and a mean value thereof was regarded as a tyrosinase activity inhibition ratio (%). Tyrosinase activity inhibition ratio (%)=[(T^1−T^2)/T^1]×100 • T^1=difference in absorbance of solution with addition of no test compound between 2 minutes and 45 seconds later and one minute and 45 seconds later • T^2=difference in absorbance of solution with addition of test compound was added between 2 minutes and 45 seconds later and one minute and 45 seconds later
as §1, with “42” for “40”, “26, the compound 45 obtained in Example 29, the compound 46 obtained in Example 30,” for “24”, “3.” for “1.”
as §1, with “34” for “40”, “18, the compound 47 obtained in Example 31,” for “24”, “3.” for “1.”
Using the compound 48 obtained in Example 32 and arbutin (manufactured by Tokyo Kasei Kogyo Co., Ltd.) as a comparative control, a tyrosinase activity inhibition test was carried out using L-dopa as a substrate. The test procedure was in accordance with Test Example 3.

[3] = molecular target: T1, hyaluronic acid-degrading enzyme (derived from bovine testicles, Type IV-S) (Bos taurus, UniProt Q2YDK3); experiment: Hyaluronic acid-degrading enzyme activity inhibition test; type: biochemical
T1 construct: derived from bovine testicles manufactured by Sigma Corporation, Type IV-S; purchased Sigma Corporation Type IV-S; host or cells: bovine testicles
T1 sequence (Q2YDK3 36-553): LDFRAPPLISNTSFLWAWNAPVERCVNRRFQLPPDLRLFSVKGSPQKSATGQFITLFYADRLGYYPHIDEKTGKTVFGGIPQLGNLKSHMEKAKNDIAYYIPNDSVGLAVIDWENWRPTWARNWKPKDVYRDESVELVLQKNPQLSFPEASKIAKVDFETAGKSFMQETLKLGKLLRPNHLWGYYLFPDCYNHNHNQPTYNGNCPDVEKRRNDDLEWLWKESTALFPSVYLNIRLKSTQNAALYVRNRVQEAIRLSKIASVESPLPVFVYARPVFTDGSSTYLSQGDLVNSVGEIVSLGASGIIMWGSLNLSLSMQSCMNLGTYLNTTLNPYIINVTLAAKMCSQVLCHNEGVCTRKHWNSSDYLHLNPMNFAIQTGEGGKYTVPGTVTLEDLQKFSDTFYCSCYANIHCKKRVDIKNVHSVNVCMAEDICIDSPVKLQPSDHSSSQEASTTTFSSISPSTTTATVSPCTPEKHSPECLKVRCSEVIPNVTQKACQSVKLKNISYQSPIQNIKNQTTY
Protocol: Using the compound 7 obtained in Example 2, the compound 34, and magnesium ascorbate phosphate as a comparative control, a hyaluronic acid-degrading enzyme activity inhibition test was carried out.
First, the following solutions shown in A to H were each prepared. • A: 0.1M acetate buffer solution was prepared by dissolving 0.60 g of acetic acid in 100 ml of distilled water. • B: A hyaluronidase solution was prepared by dissolving 7.2 mg of a hyaluronic acid-degrading enzyme (derived from bovine testicles manufactured by Sigma Corporation, Type IV-S) into 3.0 ml of the acetate buffer (prepared in the above A). • C: An activator solution was prepared by dissolving 1.0 mg of compound 48/80 (a hyaluronidase activator manufactured by Sigma Corporation) into 10.0 ml of the acetate buffer (prepared in the above A). • D: A hyaluronic acid solution was prepared by dissolving 12.0 mg of potassium hyaluronate (manufactured by Wako Pure Chemical Industries, Ltd.) into 15.0 ml of the acetate buffer (prepared in the above A). • E: A 0.4N sodium hydroxide aqueous solution was prepared by dissolving 1.60 g of sodium hydroxide into 100 ml of distilled water. • F: After 4.95 g of boric acid was dissolved into 50 ml of distilled water, a 1N sodium hydroxide aqueous solution was added until pH reached 9.1. Subsequently, the whole amount was made 100 ml by adding distilled water. • G: 1.0 g of p-dimethylaminobenzaldehyde, 1.25 ml of 10N hydrochloric acid, and 8.75 ml of acetic acid were mixed. The solution was used after the whole amount was made 100 ml by adding acetic acid immediately before use. • H: Each test compound was dissolved in the acetate buffer (prepared in the above A) so the final test concentration became 0.5 mg/ml and 1.0 mg/ml.
Next, the experimental operation was carried out with the procedures shown in the following (1) to (8).
(1) 0.2 ml of the test compound solution (prepared in the above H) and 0.1 ml of the hyaluronic acid-degrading enzyme solution (prepared in the B) were mixed and the whole was incubated at 37° C. for 20 minutes.
(2) To the above reaction solution was added 0.2 ml of the activator solution (prepared in the above C) and the whole was incubated at 37° C. for 20 minutes.
(3) To the above reaction solution was added 0.5 ml of the hyaluronic acid solution (prepared in the above D), and the whole was incubated at 37° C. for 40 minutes.
(4) To the above reaction solution was added 0.2 ml of the 0.4N sodium hydroxide aqueous solution (prepared in the above E), and the whole was cooled in an ice bath.
(5) To the above reaction solution was added 0.2 ml of the boric acid solution (prepared in the above F), and the whole was heated at 100° C. for 3 minutes.
(6) The above reaction solution was cooled in an ice bath.
(7) To the above reaction solution was added 3.0 ml of the p-dimethylaminobenzaldehyde solution (prepared in the above G), and the whole was incubated at 37° C. for 20 minutes.
(8) Absorbance of the reaction solution at 585 nm was measured using a spectrophotometer.
The above experimental operations were repeated three times, and the resulting numeric value was inserted in the following calculation formula and a mean value thereof was regarded as a hyaluronic acid-degrading enzyme activity inhibition ratio (%). Hyaluronic acid-degrading enzyme activity inhibition ratio (%)=(A−B)/A×100
A=absorbance obtained at the time when operation was carried out with addition of no test compound
B=absorbance obtained at the time when operation was carried out with addition of test compound
The compounds of the invention and magnesium ascorbate phosphate were each used in an enzymatic reaction solution in amounts of 0.1 mg/ml, 0.2 mg/ml, and 0.4 mg/ml, and the results were shown in Table 7 (since the compound 7 was not dissolved in a concentration of 0.4 mg/ml, the test was not carried out).

[4] = Test of scavenging DPPH radical (Test Example 9, microplate reader, 540 nm); settings: final concentration of 25 μg/mL; 20 minutes, room temperature
Text: Using the compound 36 obtained in Example 20, the compound 37 obtained in Example 21, the compound 38 obtained in Example 22, the compound 39 obtained in Example 23, the compound 40 obtained in Example 24, the compound 42 obtained in Example 26, the compound 45 obtained in Example 29, the compound 46 obtained in Example 30, the compound 48 obtained in Example 32 and, as a comparative control, dl-α-tocopherol (manufactured by Tokyo Kasei Kogyo Co., Ltd.), a test of scavenging DDPH (1,1-diphenyl-2-picrylhydrazyl) radical, a stable radical, was carried out.
100 μl of 800 μM DPPH ethanol solution was added to 80 μl of 100 mM Tris-HCl buffer (pH 7.4) and 20 μl of an ethanol solution of the compound 36 (final concentration of 25 μg/mL), followed by sufficient stirring. After the resulting mixture was allowed to stand in a dark place at room temperature for 20 minutes, the absorbance at 540 nm was measured on a microplate reader (absorbance of the test solution).
The compounds 37, 38, 39, 40, 42, 45, 46, and 48 of the invention as well as dl-α-tocopherol as a known radical scavenger were similarly tested.
As a control, using 80 μl of 100 mM Tris-HCl buffer (pH 7.4), 20 μl of ethanol, and 100 μl of 800 μM DPPH ethanol solution, the same operation was carried out as described above and the absorbance was measured (absorbance of the control solution).
With the individual compounds, the same measurement was repeated four times, and the mean value was inserted in the following formula to calculate a DPPH radical-scavenging ratio. DPPH radical-scavenging ratio (%)=[1−(absorbance of sample solution/absorbance of control solution)]×100

Compound: OC[C@H]1O[C@@H](Oc2ccc(O)cc2)[C@H](O)[C@@H](O)[C@@H]1O [Arbutin, arbutin, reference compound]
- Tyrosinase activity inhibition ratio (%) ([1]; 0.125 mg/mL, Table 2): 23.1%
- Tyrosinase activity inhibition ratio (%) ([1]; 0.25 mg/mL, Table 2): 28.5%
- Tyrosinase activity inhibition ratio (%) ([1]; 0.5 mg/mL in enzymatic reaction solution, Table 1): 36.2%
- Tyrosinase activity inhibition ratio (%) ([1]; 0.5 mg/mL, Table 2): 34.6%
- Tyrosinase activity inhibition ratio (%) ([1]; 1 mg/mL in enzymatic reaction solution, Table 1): 42.2%
- Tyrosinase activity inhibition ratio (%) ([2]; 0.031 mg/mL, Table 4): 10.7%
- Tyrosinase activity inhibition ratio (%) ([2]; 0.063 mg/mL, Table 4): 17.7%
- Tyrosinase activity inhibition ratio (%) ([2]; 0.125 mg/mL, Table 4): 24.7%
- Tyrosinase activity inhibition ratio (%) ([2]; 0.25 mg/mL, Table 6, 0.50 mg/mL): 35.8%
- Tyrosinase activity inhibition ratio (%) ([2]; 0.5 mg/mL, Table 3): 35.0%
- Tyrosinase activity inhibition ratio (%) ([2]; 0.5 mg/mL, Table 6, 0.50 mg/mL): 42.6%
- Tyrosinase activity inhibition ratio (%) ([2]; 1 mg/mL, Table 3): 41.6%
- Tyrosinase activity inhibition ratio (%) ([2]; 1.00 mg/ml, Table 5): 45.6%

Compound: COc1cc(CCC(=O)CC(O)CCCCCCC(=O)O)ccc1O (stereo not shown) [Compound 34]
- Hyaluronic acid-degrading enzyme activity inhibition ratio (%) ([3]; 0.1 mg/mL): 12.1%
- Hyaluronic acid-degrading enzyme activity inhibition ratio (%) ([3]; 0.2 mg/mL): 31.6%
- Hyaluronic acid-degrading enzyme activity inhibition ratio (%) ([3]; 0.4 mg/mL): 81.3%
- Tyrosinase activity inhibition ratio (%) ([2]; 1.00 mg/ml, Table 5): 60.1%

Compound: COC(=O)CCCCCCC(CC(=O)CCc1ccc(O)c(OC)c1)OC (stereo not shown) [Compound 36]
- DPPH radical-scavenging ratio (%) [4]: 31.7%

Compound: COc1cc(CCC(O)/C=C/CCCCCCC(=O)O)ccc1O (stereo not shown) [Compound 37]
- DPPH radical-scavenging ratio (%) [4]: 37.6%
- Tyrosinase activity inhibition ratio (%) ([2]; 0.5 mg/mL, Table 3): 48.6%
- Tyrosinase activity inhibition ratio (%) ([2]; 1 mg/mL, Table 3): 67.7%

Compound: COc1cc(CCC(O)CCCCCCCCC(=O)O)ccc1O (stereo not shown) [Compound 39]
- DPPH radical-scavenging ratio (%) [4]: 33.8%
- Tyrosinase activity inhibition ratio (%) ([2]; 0.5 mg/mL, Table 3): 51.3%
- Tyrosinase activity inhibition ratio (%) ([2]; 1 mg/mL, Table 3): 75.2%

Compound: COc1cc(CCC(=O)CCCCCCCCCO)ccc1O [Compound 46]
- DPPH radical-scavenging ratio (%) [4]: 39.4%
- Tyrosinase activity inhibition ratio (%) ([2]; 0.031 mg/mL, Table 4): 14.9%
- Tyrosinase activity inhibition ratio (%) ([2]; 0.063 mg/mL, Table 4): 23.8%
- Tyrosinase activity inhibition ratio (%) ([2]; 0.125 mg/mL, Table 4): 36.9%

Compound: magnesium ascorbate phosphate [reference compound]
- Hyaluronic acid-degrading enzyme activity inhibition ratio (%) ([3]; 0.1 mg/mL): 3.3%
- Hyaluronic acid-degrading enzyme activity inhibition ratio (%) ([3]; 0.2 mg/mL): 4.2%
- Hyaluronic acid-degrading enzyme activity inhibition ratio (%) ([3]; 0.4 mg/mL): 7.6%
